Measurements published in patent US12655125B2 (SIRONAX LTD., priority 2020, dated 2026).

Test system: HT-29 cells
Assay: HT29 Cells 0FBS Assay In Vitro (TNF-α/SMAC mimetic/zVAD-FMK induced necroptosis, CellTiter-Glo cell viability)
Type: cell-based
Settings: Homo sapiens; HT-29 cells, FBS free medium, TNF-α (10 ng/ml), SMAC mimetic (6 uM), zVAD-FMK (10 μM), 20 hours; geometric mean EC50; read-out: Cell activity (EC50) of Compounds 1-116
Procedure, shortened: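 HT-29 cells (5,000/well, seeded overnight) in serum-free McCoy's 5A were stimulated with TNF-α 10 ng/ml, SMAC mimetic 6 μM and zVAD-FMK 10 μM to induce necroptosis. Compound added as 10-point 3-fold series for 20 h at 37° C. CellTiter-Glo luminescence gives viability; EC50 is geometric mean of duplicate dose-responses.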

First: CN(C)CCOc1cnn(C)c1-c1cc(OC2CN(C(=O)N3N=CC[C@H]3c3cc(F)cc(F)c3)C2)c(F)cn1 [compound 51, (S)-(5-(3,5-difluorophenyl)-4,5-dihydro-1H-pyrazol-1-yl)(3-((2-(4-(2-(dimethylamino)ethoxy)-1-methyl-1H-pyrazol-5-yl)-5-fluoropyridin-4-yl)oxy)azetidin-1-yl)methanone]
Second: COCCOc1cnn(C)c1-c1cc(OC2CN(C(=O)N3N=CC[C@H]3c3cc(F)cc(F)c3)C2)c(F)cn1 [compound 52, (S)-(5-(3,5-difluorophenyl)-4,5-dihydro-1H-pyrazol-1-yl)(3-((5-fluoro-2-(4-(2-methoxyethoxy)-1-methyl-1H-pyrazol-5-yl)pyridin-4-yl)oxy)azetidin-1-yl)methanone]
The EC50 of the first is higher: 0.1 to 1 µM for the first, 0.0001 to 0.1 µM for the second. The second is the more potent here.

`Cn1ncc(N)c1-c1cc(OC2CN(C(=O)N3N=CC[C@H]3c3cc(F)cc(F)c3)C2)c(F)cn1` [compound 53, (S)-(3-((2-(4-amino-1-methyl-1H-pyrazol-5-yl)-5-fluoropyridin-4-yl)oxy)azetidin-1-yl)(5-(3,5-difluorophenyl)-4,5-dihydro-1H-pyrazol-1-yl)methanone] and `Cn1ncc(C(N)=O)c1-c1cc(OC2CN(C(=O)N3N=CC[C@H]3c3cc(F)cc(F)c3)C2)c(F)cn1` [compound 66, (S)-5-(4-((1-(5-(3,5-difluorophenyl)-4,5-dihydro-1H-pyrazole-1-carbonyl)azetidin-3-yl)oxy)-5-fluoropyridin-2-yl)-1-methyl-1H-pyrazole-4-carboxamide] fall in the same range of EC50: 0.0001 to 0.1 µM for the first, 0.0001 to 0.1 µM for the second.

`CNc1cnn(C)c1-c1cc(OC2CN(C(=O)N3N=CC[C@H]3c3cc(F)cc(F)c3)C2)c(F)cn1` [compound 54, (S)-(5-(3,5-difluorophenyl)-4,5-dihydro-1H-pyrazol-1-yl)(3-((5-fluoro-2-(1-methyl-4-(methylamino)-1H-pyrazol-5-yl)pyridin-4-yl)oxy)azetidin-1-yl)methanone] and `CC(=O)Nc1cnn(C)c1-c1cc(OC2CN(C(=O)N3N=CC[C@H]3c3cc(F)cc(F)c3)C2)c(F)cn1` [compound 57, (S)—N-(5-(4-((1-(5-(3,5-difluorophenyl)-4,5-dihydro-1H-pyrazole-1-carbonyl)azetidin-3-yl)oxy)-5-fluoropyridin-2-yl)-1-methyl-1H-pyrazol-4-yl)acetamide] fall in the same range of EC50: 0.0001 to 0.1 µM for the first, 0.0001 to 0.1 µM for the second.

First: CN(C)c1cnn(C)c1-c1cc(OC2CN(C(=O)N3N=CC[C@H]3c3cc(F)cc(F)c3)C2)c(F)cn1 [compound 55, (S)-(5-(3,5-difluorophenyl)-4,5-dihydro-1H-pyrazol-1-yl)(3-((2-(4-(dimethylamino)-1-methyl-1H-pyrazol-5-yl)-5-fluoropyridin-4-yl)oxy)azetidin-1-yl)methanone]
Second: CN(C)C(=O)c1cnn(C)c1-c1cc(OC2CN(C(=O)N3N=CC[C@H]3c3cc(F)cc(F)c3)C2)c(F)cn1 [compound 68, (S)-5-(4-((1-(5-(3,5-difluorophenyl)-4,5-dihydro-1H-pyrazole-1-carbonyl)azetidin-3-yl)oxy)-5-fluoropyridin-2-yl)-N,N,1-trimethyl-1H-pyrazole-4-carboxamide]
The EC50 of the first is lower: 0.0001 to 0.1 µM for the first, 1 to 10 µM for the second. The first is the more potent here.

`COCCNc1cnn(C)c1-c1cc(OC2CN(C(=O)N3N=CC[C@H]3c3cc(F)cc(F)c3)C2)c(F)cn1` [compound 56, (S)-(5-(3,5-difluorophenyl)-4,5-dihydro-1H-pyrazol-1-yl)(3-((5-fluoro-2-(4-((2-methoxyethyl)amino)-1-methyl-1H-pyrazol-5-yl)pyridin-4-yl)oxy)azetidin-1-yl)methanone] and `CNC(=O)CNc1cnn(C)c1-c1cc(OC2CN(C(=O)N3N=CC[C@H]3c3cc(F)cc(F)c3)C2)c(F)cn1` [compound 61, (S)-2-((5-(4-((1-(5-(3,5-difluorophenyl)-4,5-dihydro-1H-pyrazole-1-carbonyl)azetidin-3-yl)oxy)-5-fluoropyridin-2-yl)-1-methyl-1H-pyrazol-4-yl)amino)-N-methylacetamide] fall in the same range of EC50: 0.0001 to 0.1 µM for the first, 0.0001 to 0.1 µM for the second.

`CCC(=O)Nc1cnn(C)c1-c1cc(OC2CN(C(=O)N3N=CC[C@H]3c3cc(F)cc(F)c3)C2)c(F)cn1` [compound 58, (S)—N-(5-(4-((1-(5-(3,5-difluorophenyl)-4,5-dihydro-1H-pyrazole-1-carbonyl)azetidin-3-yl)oxy)-5-fluoropyridin-2-yl)-1-methyl-1H-pyrazol-4-yl)propionamide] and `CC(C)CC(=O)Nc1cnn(C)c1-c1cc(OC2CN(C(=O)N3N=CC[C@H]3c3cc(F)cc(F)c3)C2)c(F)cn1` [compound 60, (S)—N-(5-(4-((1-(5-(3,5-difluorophenyl)-4,5-dihydro-1H-pyrazole-1-carbonyl)azetidin-3-yl)oxy)-5-fluoropyridin-2-yl)-1-methyl-1H-pyrazol-4-yl)-3-methylbutanamide] fall in the same range of EC50: 0.0001 to 0.1 µM for the first, 0.0001 to 0.1 µM for the second.

`CC(C)C(=O)Nc1cnn(C)c1-c1cc(OC2CN(C(=O)N3N=CC[C@H]3c3cc(F)cc(F)c3)C2)c(F)cn1` [compound 59, (S)—N-(5-(4-((1-(5-(3,5-difluorophenyl)-4,5-dihydro-1H-pyrazole-1-carbonyl)azetidin-3-yl)oxy)-5-fluoropyridin-2-yl)-1-methyl-1H-pyrazol-4-yl)isobutyramide] and `CN(C)C(=O)CNc1cnn(C)c1-c1cc(OC2CN(C(=O)N3N=CC[C@H]3c3cc(F)cc(F)c3)C2)c(F)cn1` [compound 63, (S)-2-((5-(4-((1-(5-(3,5-difluorophenyl)-4,5-dihydro-1H-pyrazole-1-carbonyl)azetidin-3-yl)oxy)-5-fluoropyridin-2-yl)-1-methyl-1H-pyrazol-4-yl)amino)-N,N-dimethylacetamide] fall in the same range of EC50: 0.0001 to 0.1 µM for the first, 0.0001 to 0.1 µM for the second.

Compared with `Cn1ncc(NCC(=O)N2CCOCC2)c1-c1cc(OC2CN(C(=O)N3N=CC[C@H]3c3cc(F)cc(F)c3)C2)c(F)cn1` [compound 62, (S)-2-((5-(4-((1-(5-(3,5-difluorophenyl)-4,5-dihydro-1H-pyrazole-1-carbonyl)azetidin-3-yl)oxy)-5-fluoropyridin-2-yl)-1-methyl-1H-pyrazol-4-yl)amino)-1-morpholinoethan-1-one], `Cn1ncc(C(=O)N2CCC2)c1-c1cc(OC2CN(C(=O)N3N=CC[C@H]3c3cc(F)cc(F)c3)C2)c(F)cn1` [compound 72, (S)-azetidin-1-yl(5-(4-((1-(5-(3,5-difluorophenyl)-4,5-dihydro-1H-pyrazole-1-carbonyl)azetidin-3-yl)oxy)-5-fluoropyridin-2-yl)-1-methyl-1H-pyrazol-4-yl)methanone] is higher in EC50: 0.0001 to 0.1 µM for the first, 0.1 to 1 µM for the second. The first is the more potent here.

`COC(=O)c1cnn(C)c1-c1cc(OC2CN(C(=O)N3N=CC[C@H]3c3cc(F)cc(F)c3)C2)c(F)cn1` [compound 64, methyl (S)-5-(4-((1-(5-(3,5-difluorophenyl)-4,5-dihydro-1H-pyrazole-1-carbonyl)azetidin-3-yl)oxy)-5-fluoropyridin-2-yl)-1-methyl-1H-pyrazole-4-carboxylate] and `CNC(=O)c1cnn(C)c1-c1cc(OC2CN(C(=O)N3N=CC[C@H]3c3cc(F)cc(F)c3)C2)c(F)cn1` [compound 67, (S)-5-(4-((1-(5-(3,5-difluorophenyl)-4,5-dihydro-1H-pyrazole-1-carbonyl)azetidin-3-yl)oxy)-5-fluoropyridin-2-yl)-N,1-dimethyl-1H-pyrazole-4-carboxamide] fall in the same range of EC50: 0.0001 to 0.1 µM for the first, 0.0001 to 0.1 µM for the second.

First: Cn1ncc(C(=O)O)c1-c1cc(OC2CN(C(=O)N3N=CC[C@H]3c3cc(F)cc(F)c3)C2)c(F)cn1 [compound 65, (S)-5-(4-((1-(5-(3,5-difluorophenyl)-4,5-dihydro-1H-pyrazole-1-carbonyl)azetidin-3-yl)oxy)-5-fluoropyridin-2-yl)-1-methyl-1H-pyrazole-4-carboxylic acid]
Second: CCNC(=O)c1cnn(C)c1-c1cc(OC2CN(C(=O)N3N=CC[C@H]3c3cc(F)cc(F)c3)C2)c(F)cn1 [compound 71, (S)-5-(4-((1-(5-(3,5-difluorophenyl)-4,5-dihydro-1H-pyrazole-1-carbonyl)azetidin-3-yl)oxy)-5-fluoropyridin-2-yl)-N-ethyl-1-methyl-1H-pyrazole-4-carboxamide]
The EC50 of the first is higher: 1 to 10 µM for the first, 0.0001 to 0.1 µM for the second. The second is the more potent here.

First: CN(C)CCNC(=O)c1cnn(C)c1-c1cc(OC2CN(C(=O)N3N=CC[C@H]3c3cc(F)cc(F)c3)C2)c(F)cn1 [compound 69, (S)-5-(4-((1-(5-(3,5-difluorophenyl)-4,5-dihydro-1H-pyrazole-1-carbonyl)azetidin-3-yl)oxy)-5-fluoropyridin-2-yl)-N-(2-(dimethylamino)ethyl)-1-methyl-1H-pyrazole-4-carboxamide]
Second: CC(C)CNC(=O)c1cnn(C)c1-c1cc(OC2CN(C(=O)N3N=CC[C@H]3c3cc(F)cc(F)c3)C2)c(F)cn1 [compound 70, (S)-5-(4-((1-(5-(3,5-difluorophenyl)-4,5-dihydro-1H-pyrazole-1-carbonyl)azetidin-3-yl)oxy)-5-fluoropyridin-2-yl)-N-isobutyl-1-methyl-1H-pyrazole-4-carboxamide]
The EC50 of the first is higher: 0.1 to 1 µM for the first, 0.0001 to 0.1 µM for the second.

`Cn1ncc(C(=O)N2CC(O)C2)c1-c1cc(OC2CN(C(=O)N3N=CC[C@H]3c3cc(F)cc(F)c3)C2)c(F)cn1` [compound 73, (S)-(5-(3,5-difluorophenyl)-4,5-dihydro-1H-pyrazol-1-yl)(3-((5-fluoro-2-(4-(3-hydroxyazetidine-1-carbonyl)-1-methyl-1H-pyrazol-5-yl)pyridin-4-yl)oxy)azetidin-1-yl)methanone] and `COC1CN(C(=O)c2cnn(C)c2-c2cc(OC3CN(C(=O)N4N=CC[C@H]4c4cc(F)cc(F)c4)C3)c(F)cn2)C1` [compound 74, (S)-(5-(3,5-difluorophenyl)-4,5-dihydro-1H-pyrazol-1-yl)(3-((5-fluoro-2-(4-(3-methoxyazetidine-1-carbonyl)-1-methyl-1H-pyrazol-5-yl)pyridin-4-yl)oxy)azetidin-1-yl)methanone] fall in the same range of EC50: 0.1 to 1 µM for the first, 0.1 to 1 µM for the second.
